Measurements published in patent US20060128792A1, “Deguelin as a chemopreventive agent for lung cancer” (priority 2002, published 2006).
Where “and” joins values, the source holds several entries; their conditions need not be identical. Identical values can stand only once.

Columns and labels:
Assay type in all cases: cell-based
H596 = assay: MTT assay, growth inhibition by deguelin or deguelin derivatives; conditions: 3 days
NSCLC cells = assay: MTT assay, growth inhibition of NSCLC cells by deguelin and deguelin derivatives (Table 2, FIG. 7); conditions: 0.01-1 μM, 3 days
H460 = assay: MTT assay, growth inhibition by deguelin or deguelin derivatives; conditions: 3 days
H358 = assay: as above; conditions: 3 days
A549 = assay: as above; conditions: 3 days
H322 = assay: as above; conditions: 3 days
H1299 = assay: as above; conditions: 3 days

COc1cc2c(cc1OC)[C@]1(O)C(=O)c3ccc4c(c3O[C@@H]1CO2)C=CC(C)(C)O4 [tephrosin]
MTT assay reading, Average (H596; H596, 0.01 μM): 0.1156
MTT assay reading, individual replicate (H596; H596, 0.01 μM): 0.062 and 0.127 and 0.078 and 0.138 (2×) and 0.103 and 0.163
MTT assay reading, Average (H596; H596, 0.1 μM): 0.0826
MTT assay reading, individual replicate (H596; H596, 0.1 μM): 0.082 and 0.062 and 0.066 and 0.095 and 0.09 and 0.058 and 0.125
MTT assay reading, Average (H596; H596, 0.5 μM): 0.1631
MTT assay reading, individual replicate (H596; H596, 0.5 μM): 0.137 and 0.159 and 0.151 and 0.111 and 0.158 and 0.076 and 0.35
MTT assay reading, Average (H596; H596, 1 μM): 0.1983
MTT assay reading, individual replicate (H596; H596, 1 μM): 0.287 and 0.257 and 0.172 and 0.151 and 0.215 and 0.131 and 0.175
inhibiting cell growth in NSCLC cells, ranking among the derivatives (NSCLC cells): most effective
% control (H460; H460, 0.01 μM): 0.05%
MTT assay reading, Average (H460; H460, 0.01 μM): 0.0956
MTT assay reading, individual replicate (H460; H460, 0.01 μM): 0.072 and 0.051 and 0.097 and 0.1 and 0.105 and 0.132 and 0.112
% control (H460; H460, 0.1 μM): 0.05%
MTT assay reading, Average (H460; H460, 0.1 μM): 0.0816
MTT assay reading, individual replicate (H460; H460, 0.1 μM): 0.072 and 0.067 and 0.086 (2×) and 0.112 and 0.056 and 0.092
% control (H460; H460, 0.5 μM): 0.08%
MTT assay reading, Average (H460; H460, 0.5 μM): 0.141
MTT assay reading, individual replicate (H460; H460, 0.5 μM): 0.088 and 0.113 (2×) and 0.159 and 0.16 and 0.19 and 0.164
% control (H460; H460, 1 μM): 0.10%
MTT assay reading, Average (H460; H460, 1 μM): 0.1819
MTT assay reading, individual replicate (H460; H460, 1 μM): 0.162 and 0.184 and 0.154 and 0.272 and 0.183 and 0.133 and 0.185
MTT assay reading, Average (H358; H358, 0.01 μM): 0.6206
MTT assay reading, individual replicate (H358; H358, 0.01 μM): 0.508 and 0.601 and 0.658 and 0.674 and 0.608 and 0.59 and 0.705
MTT assay reading, Average (H358; H358, 0.1 μM): 0.5327
MTT assay reading, individual replicate (H358; H358, 0.1 μM): 0.522 and 0.496 (2×) and 0.558 and 0.516 and 0.579 and 0.562
MTT assay reading, Average (H358; H358, 0.5 μM): 0.1047
MTT assay reading, individual replicate (H358; H358, 0.5 μM): 0.054 and 0.048 and 0.1 and 0.105 and 0.117 and 0.147 and 0.162
MTT assay reading, Average (H358; H358, 1 μM): 0.2634
MTT assay reading, individual replicate (H358; H358, 1 μM): 0.245 and 0.233 and 0.332 and 0.139 and 0.234 and 0.293 and 0.368
% control (A549; A549, 0.01 μM): 0.16%
MTT assay reading, Average (A549; A549, 0.01 μM): 0.2403
MTT assay reading, individual replicate (A549; A549, 0.01 μM): 0.274 and 0.196 and 0.223 and 0.284 and 0.229 and 0.252 and 0.224
% control (A549; A549, 0.1 μM): 0.17%
MTT assay reading, Average (A549; A549, 0.1 μM): 0.248
MTT assay reading, individual replicate (A549; A549, 0.1 μM): 0.161 and 0.279 and 0.299 and 0.218 and 0.262 and 0.236 and 0.281
% control (A549; A549, 0.5 μM): 0.17%
MTT assay reading, Average (A549; A549, 0.5 μM): 0.255
MTT assay reading, individual replicate (A549; A549, 0.5 μM): 0.299 and 0.243 and 0.26 and 0.217 (2×) and 0.305 and 0.244
% control (A549; A549, 1 μM): 0.23%
MTT assay reading, Average (A549; A549, 1 μM): 0.3313
MTT assay reading, individual replicate (A549; A549, 1 μM): 0.434 and 0.15 and 0.366 and 0.295 and 0.386 and 0.341 and 0.347
MTT assay reading, Average (H322; H322, 0.01 μM): 0.6627
MTT assay reading, individual replicate (H322; H322, 0.01 μM): 0.527 and 0.596 and 0.713 and 0.655 and 0.68 and 0.721 and 0.747
MTT assay reading, Average (H322; H322, 0.1 μM): 0.7197
MTT assay reading, individual replicate (H322; H322, 0.1 μM): 0.685 and 0.659 and 0.726 and 0.643 and 0.732 and 0.795 and 0.798
MTT assay reading, Average (H322; H322, 0.5 μM): 0.1343
MTT assay reading, individual replicate (H322; H322, 0.5 μM): 0.113 and 0.109 (2×) and 0.12 and 0.117 and 0.162 and 0.21
MTT assay reading, Average (H322; H322, 1 μM): 0.2089
MTT assay reading, individual replicate (H322; H322, 1 μM): 0.223 and 0.216 (3×) and 0.182 and 0.168 and 0.241
MTT assay reading, Average (H1299; H1299, 0.01 μM): 0.4143
MTT assay reading, individual replicate (H1299; H1299, 0.01 μM): 0.38 and 0.248 and 0.428 and 0.399 and 0.471 and 0.527 and 0.447
MTT assay reading, Average (H1299; H1299, 0.1 μM): 0.7746
MTT assay reading, individual replicate (H1299; H1299, 0.1 μM): 0.795 and 0.806 and 0.783 and 0.784 and 0.956 and 0.491 and 0.807
MTT assay reading, Average (H1299; H1299, 0.5 μM): 0.1507
MTT assay reading, individual replicate (H1299; H1299, 0.5 μM): 0.135 and 0.147 and 0.166 and 0.204 and 0.179 and 0.097 and 0.127
MTT assay reading, Average (H1299; H1299, 1 μM): 0.2739
MTT assay reading, individual replicate (H1299; H1299, 1 μM): 0.261 and 0.279 and 0.255 and 0.26 and 0.36 and 0.183 and 0.319
